The values that follow come from patent US7446177B2, “Uses of DC-SIGN and DC-SIGNR for inhibiting hepatitis C virus infection” (Progenics Pharmaceuticals, Inc., priority 2001, dated 2008).

“Also recorded” adds a separate entry of the source.

In assay [1] the target is T1, HCV-E2 binding to DC-SIGN-R (Homo sapiens, UniProt Q9H2X3).
T1 construct: E2 from Accurate Chemicals, NY Item # 6749; E2 produced in CHO cells
Particulars: HeLa-DC-SIGN-R cells, 20 beads/cell; mannan 20 ug/ml, antibodies 0.1-10 ug/ml, EDTA or EGTA 5 mM. On the procedure:
(§1) Carboxylate-modified FluoSpheres® NeutrAvidin™ labeled microspheres (505/515 nm, 1.0 um; Molecular Probes, Eugene, Oreg.) were coated with HCV E2 glycoprotein as described for ICAM-1 beads (Geijtenbeek et al, Blood, 94, 754-764 (1999)). Briefly, NeutrAvidin™-coated beads were sonicated, and washed in PBS/BSA (0.5%). Beads were incubated with biotinylated-Sp-conjugated AffiniPure F(ab′)2 goat anti-mouse IgG F(ab′)2 fragment specific (6 ug/ml in PBS/BSA (0.5%); Jackson Immunoresearch Laboratories, Inc., West Grove, Pa.) for 2 hours at 37° C. After washing, beads were incubated with mouse anti-E2 antibodies (6 ug/ml in PBS/BSA (0.5%)) at 4° C. overnight. The beads were washed and incubated with 250 ng/ml purified HCV E2 produced in CHO cells (Accurate Chemicals, NY) overnight at 4° C.
(§2) This was performed as described by Geijtenbeek et al, (Blood, 94, 754-764 (1999)), with modifications. Cells were removed from culture by cell dissociation solution (Sigma) for 5 minutes at 37° C. and washed three times in adhesion buffer (20 mM Tris-HCl [pH 8.0], 150 mM NaCl, 1 mM CaCl2, 2 mM MgCl2, and 0.5% BSA). Cells were resuspended at a final concentration of 5×10^6 cells/ml in adhesion buffer for 30 minutes at 4° C. to recharge Ca2+ levels. Cells ([…]) were preincubated with mannan (20 ug/ml; Sigma), antibodies (0.1-10 ug/ml), EDTA (5 mM) or EGTA (5 mM) for 10 minutes at room temperature. HCV-E2-coated fluorescent beads (20 beads/cell) were added, and the suspension incubated for 30 minutes at 37° C. Adhesion was determined by measuring the percentage of cells that bound fluorescent beads by flow cytometry using a FACSca (Becton Dickinson, Oxnard, Calif.).
(§3) To determine whether DC-SIGN and DC-SIGN-R bind to HCV-E2 glycoproetin, a flow cytometric adhesion assay (Geijtenbeek et al, Blood, 94, 754-764 (1999)) was adapted. HCV-E2 protein produced in CHO cells was captured on fluorescent beads using a panel of anti-E2 mAbs, which were incubated with DC-SIGN- and DC-SIGN-R-HeLa cells at a ratio of 20 beads per cell.

Assay [2] concerns the target T2, HCV-E2 binding to DC-SIGN (Homo sapiens, UniProt Q9NNX6).
T2 construct: E2 from Accurate Chemicals, NY Item # 5444; E2 produced in CHO cells
The note with it: HeLa-DC-SIGN cells, 20 beads/cell; mannan 20 ug/ml, antibodies 0.1-10 ug/ml, EDTA or EGTA 5 mM. As for the experimental part:
as §1, §2, §3

T2 sequence (Q9NNX6 whole entry): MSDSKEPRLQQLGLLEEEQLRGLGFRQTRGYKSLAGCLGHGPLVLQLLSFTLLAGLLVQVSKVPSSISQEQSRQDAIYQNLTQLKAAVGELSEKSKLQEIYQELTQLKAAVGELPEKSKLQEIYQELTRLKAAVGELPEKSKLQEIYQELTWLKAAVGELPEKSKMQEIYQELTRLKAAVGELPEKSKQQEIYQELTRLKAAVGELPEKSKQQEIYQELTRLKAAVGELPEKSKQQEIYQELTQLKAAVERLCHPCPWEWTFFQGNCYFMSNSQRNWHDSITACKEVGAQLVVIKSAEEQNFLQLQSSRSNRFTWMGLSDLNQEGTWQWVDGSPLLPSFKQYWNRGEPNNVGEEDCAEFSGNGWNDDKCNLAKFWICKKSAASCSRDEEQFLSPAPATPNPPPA
T1 sequence (Q9H2X3 whole entry): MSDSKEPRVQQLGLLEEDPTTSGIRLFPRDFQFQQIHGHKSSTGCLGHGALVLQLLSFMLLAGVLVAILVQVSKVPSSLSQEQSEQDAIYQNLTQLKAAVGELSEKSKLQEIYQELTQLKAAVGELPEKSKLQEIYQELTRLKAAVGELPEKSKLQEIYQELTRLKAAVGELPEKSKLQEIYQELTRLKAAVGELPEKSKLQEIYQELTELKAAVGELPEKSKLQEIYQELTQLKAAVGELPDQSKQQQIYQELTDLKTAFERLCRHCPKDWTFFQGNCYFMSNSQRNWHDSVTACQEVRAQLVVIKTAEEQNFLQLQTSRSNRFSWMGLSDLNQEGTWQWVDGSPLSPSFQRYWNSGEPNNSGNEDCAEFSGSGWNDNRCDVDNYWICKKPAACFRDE

Regarding `O=C(O)CN(CCN(CC(=O)O)CC(=O)O)CC(=O)O` [EDTA], the “Inhibition of adhesion of HCV-E2-coated beads to DC-SIGN-R” value (from here on “Inhibition of adhesion … to DC-SIGN-R”) in assay [1] is given as “efficiently inhibited”. Further, the “Inhibition of adhesion of HCV-E2-coated beads to DC-SIGN” value in assay [2] was “efficiently inhibited”.

In the case of `O=C(O)CN(CCOCCOCCN(CC(=O)O)CC(=O)O)CC(=O)O` [EGTA], the “Inhibition of adhesion … to DC-SIGN-R” value in assay [1] is on record as “efficiently inhibited”. Also, in assay [2], the “Inhibition of adhesion of HCV-E2-coated beads to DC-SIGN” value is “efficiently inhibited”.

With mannan, in assay [1], the “Inhibition of adhesion … to DC-SIGN-R” value is on record as “inhibit; also recorded: efficiently inhibited; also recorded: blocked”. The “Inhibition of adhesion of HCV-E2-coated beads to DC-SIGN” value in assay [2] is listed as “inhibit; also recorded: efficiently inhibited; also recorded: blocked”.
